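Values below derive from 48-hour exposures of cells grown in 96-well plates, with endpoints linearly interpolated between the two concentrations bracketing the appropriate inhibition level. Definition used: TGI = concentration required for complete inhibition of growth.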
Tests used:
Test in all cases: inhibition of tumour cell growth, NCI panel, 48 h
U251 CNS = tested on: U251 CNS
BT-549 breast = tested on: BT-549 breast
SN12C renal = tested on: SN12C renal
RPMI-8226 leukemia = tested on: RPMI-8226 leukemia
SK-MEL-2 melanoma = tested on: SK-MEL-2 melanoma
UACC-257 melanoma = tested on: UACC-257 melanoma
HT29 colon = tested on: HT29 colon
SF-295 CNS = tested on: SF-295 CNS
SW-620 colon = tested on: SW-620 colon
COLO 205 colon = tested on: COLO 205 colon
MALME-3M melanoma = tested on: MALME-3M melanoma
A498 renal = tested on: A498 renal
OVCAR-3 ovarian = tested on: OVCAR-3 ovarian
SK-OV-3 ovarian = tested on: SK-OV-3 ovarian
SK-MEL-28 melanoma = tested on: SK-MEL-28 melanoma
MDA-N = tested on: MDA-N
SR leukemia = tested on: SR leukemia
786-0 renal = tested on: 786-0 renal
OVCAR-8 ovarian = tested on: OVCAR-8 ovarian
K-562 leukemia = tested on: K-562 leukemia
SF-539 CNS = tested on: SF-539 CNS
HS 578T breast = tested on: HS 578T breast
HOP-62 NSCLC = tested on: HOP-62 NSCLC
SK-MEL-5 melanoma = tested on: SK-MEL-5 melanoma
EKVX NSCLC = tested on: EKVX NSCLC
OVCAR-5 ovarian = tested on: OVCAR-5 ovarian
DU-145 prostate = tested on: DU-145 prostate
SF-268 CNS = tested on: SF-268 CNS
CCRF-CEM leukemia = tested on: CCRF-CEM leukemia
TK-10 renal = tested on: TK-10 renal
HCC-2998 colon = tested on: HCC-2998 colon
ACHN renal = tested on: ACHN renal
M14 melanoma = tested on: M14 melanoma
MOLT-4 leukemia = tested on: MOLT-4 leukemia
MCF7 breast = tested on: MCF7 breast
MDA-MB-231 breast = tested on: MDA-MB-231 breast
NCI-H23 lung = tested on: NCI-H23 lung
NCI-H226 lung = tested on: NCI-H226 lung
MDA-MB-435 = tested on: MDA-MB-435
NCI-H460 lung = tested on: NCI-H460 lung
HCT-15 colon = tested on: HCT-15 colon
SNB-75 CNS = tested on: SNB-75 CNS
OVCAR-4 ovarian = tested on: OVCAR-4 ovarian
IGROV1 ovarian = tested on: IGROV1 ovarian
KM12 colon = tested on: KM12 colon
UACC-62 melanoma = tested on: UACC-62 melanoma
LOX IMVI melanoma = tested on: LOX IMVI melanoma
HCT-116 colon = tested on: HCT-116 colon
HL-60(TB) leukemia = tested on: HL-60(TB) leukemia
SNB-19 CNS = tested on: SNB-19 CNS
CAKI-1 renal = tested on: CAKI-1 renal
NCI-H522 lung = tested on: NCI-H522 lung
A549 NSCLC = tested on: A549 NSCLC
PC-3 prostate = tested on: PC-3 prostate
T-47D breast = tested on: T-47D breast
UO-31 renal = tested on: UO-31 renal
HOP-92 NSCLC = tested on: HOP-92 NSCLC

Measured: TGI

CCC1OC(=O)CC(O)C(C)C(OC2OC(C)C(O)C(N(C)C)C2O)C(CC=O)CC(C)C(=O)/C=C/C2(C)OC2C1C (centres undefined)
49.8 µM: UACC-62 melanoma
39.2 µM: M14 melanoma
66.2 µM: MDA-MB-231 breast
29.6 µM: KM12 colon
34.6 µM: RPMI-8226 leukemia
47.6 µM: IGROV1 ovarian
73.6 µM: OVCAR-3 ovarian
41.2 µM: SW-620 colon | MOLT-4 leukemia
99.6 µM: BT-549 breast
37 µM: HT29 colon
34.1 µM: LOX IMVI melanoma
27.4 µM: MALME-3M melanoma
30.5 µM: SN12C renal
44.7 µM: UACC-257 melanoma
37.2 µM: HCT-116 colon
33 µM: NCI-H522 lung
79.8 µM: SF-268 CNS
90 µM: SNB-75 CNS
80.5 µM: SF-539 CNS
44.6 µM: SR leukemia
60.2 µM: CCRF-CEM leukemia
82.1 µM: CAKI-1 renal
50.7 µM: MCF7 breast
53.7 µM: T-47D breast
18.3 µM: OVCAR-8 ovarian
76.1 µM: HS 578T breast
31.2 µM: HCC-2998 colon
91.8 µM: NCI-H23 lung
36.3 µM: COLO 205 colon
72.6 µM: 786-0 renal
94.3 µM: A498 renal
not listed: UO-31 renal | HOP-92 NSCLC
> 100 µM: all other assays above

CCn1c2ccccc2c2cc(N=Nc3ccc(C#N)cc3)ccc21
71.6 µM: SNB-19 CNS
87.6 µM: SNB-75 CNS
57.1 µM: BT-549 breast
59 µM: MDA-MB-231 breast
52.7 µM: MALME-3M melanoma
70 µM: A498 renal
79.7 µM: HOP-92 NSCLC
68.6 µM: NCI-H23 lung
61.8 µM: LOX IMVI melanoma
not listed: RPMI-8226 leukemia | SR leukemia | K-562 leukemia | HCC-2998 colon
> 100 µM: all other assays above

COc1ccc(C2SC(N)=Nc3c2c(C)nn3C(=O)Cc2ccccc2)cc1 (centres undefined)
not listed: U251 CNS | SK-MEL-2 melanoma | OVCAR-3 ovarian | OVCAR-5 ovarian | OVCAR-4 ovarian | HOP-92 NSCLC
> 100 µM: all other assays above
